Here are results for 3 compounds from patent US10391134B2, “Anti-candida compositions and uses thereof” (PharmAlp SA, priority 2014, dated 2019).

Common to all, as to type: cell-based
The test system of data set [1] is Candida albicans cells (ATCC MYA-2876). Nature of the data set: Candida growth test (MIC, visual turbidity score). On the procedure: Candida albicans cells (ATCC MYA-2876) were incubated in SB (Sabouraud broth, Biolife 4020002) for 24 h at 30° C. and 150 rpm. The obtained culture was enumerated with a Neubauer Improved count chamber and concentration adjusted to 2.5·10^3 cfu/ml by dilution with sterile SB. Vaginal cells (End1/E6E7, ATCC CRL-2615) have been grown in Keratinocyte SFM (Gibco 17005-42) with 0.1 ng/ml human recombinant EGF (Gibco 10450-013), 0.05 mg/ml bovine pituitary extract (Gibco 13028-014) and additional calcium chloride 44.1 mg/L according to instructions by the provider, with media change every 2-3 days.
Minimal inhibitory concentration (MIC) of the plant extracts and antifungal substances was accomplished through tissue culture plates of 96 wells with flat bottom (Becton Dickinson). In each well 100 μl of the 2.5·10^3 cfu/ml Candida albicans culture obtained as described above in SB was mixed with 100 μl plant extract of different concentrations (0.025, 0.083, 0.25, 0.83, 2.5 and 8.3 mg/ml). Together with each dilution series a blank well was prepared with 100 μl culture and 100 μl of 5% ethanol-water solution. Fluconazole (Sigma, F8929) has been taken as positive control. Fluconazole solutions of different concentrations (4, 16, 32, 65, 650 μg/ml) have been freshly prepared prior testing. A well with only broth (100 μl) plus water (100 μl) and a well with broth plus plant extract (100 μl) were also prepared for color control. The plate was then incubated at 37° C. for 24 h and 48 h.
The evaluation of the growth inhibitory activities was conducted by visual observation of the turbidity of the wells and by attribution of a score from 0 (no growth) to 4 (maximal growth, similar to control well). MIC value of a substance is defined as the concentration which permits to reach a score of less than […]. […] In fact, the score of 2 represents an inhibition of Candida concentrations of about 80%. Results are presented on FIG. 2. […]

The subject of data set [2] is Candida albicans adhesion on human vaginal epithelial cells (End1/E6E7). Put plainly: Inhibitory activity on Candida adhesion on human vaginal epithelial cells. On the procedure: A tissue culture plate of 24 wells was prepared with vaginal epithelial cells. 0.5 ml of a culture of 10^5 cells/ml in keratinocyte SFM were put in each well of a 24-well plate and incubated for 2 days at 37° C. and 5% CO2. Each well was filled (after taking away the vaginal cells growth media) with 1 ml C. albicans culture of 5·10^6 cfu/ml mixed with test substance. As control, the solvent of each test substance was also tested. The plate was incubated at 37° C. for 6 h or 2 h ([…] for Example 2, 2 h for Example 4), permitting Candida cells to adhere to vaginal cells. After incubation the Candida culture was pipetted away from each well, which were then washed 3 times with 0.5 ml PBS. The epithelial cells-Candida layer was treated with a 0.05% trypsin solution (concentration of 1 ml/25 cm^2), which was then neutralized by addition of DMEM with 10% FCS. […] The obtained cell solution was diluted and analyzed with pour plate method (Manuel Suisse des denrées alimentaires, Chapitre 56, 2000, revision partielle 2004): 1 ml of the appropriate dilution was pipetted into an empty Petri dish and about 15-20 ml of SDA, cooled down to 45-50° C., poured over it.
After 24 h incubation at 37° C. the colonies were counted and the result (in cfu/ml) multiplied 1.5 times to obtain the number of adhered cell in each well. […]

Data set [3] has as its system human vaginal epithelial cells. Put plainly: Neutral red screening of human cytotoxicity. The note with it: 24 h incubation; positive control and validation component. On the procedure:
Potential cytotoxicity of the extracts was assayed in the neutral red-screening test using human vaginal epithelial cells at 80% confluence corresponding to 2*10^5 cells per well of 96 wells as follows:
The extracts freshly extracted and stored once frozen were incubated for 24 h with the epithelial cells at different concentrations. At the end of the experiment the cells were washed 3× and incubated with Neutral Red (NR) medium (50 μg/ml) for 3 hours at 37° C., 5.0% CO2/air. A water solution at 0.5% ethanol was used as negative control (present in all samples). […] Cells were then washed and NR quantified. 100% staining intensity indicate intact lysosomal activity. 0% indicates little to no survival of human cells. Results were analysed according to the Hill function. IC50 or concentrations with highest impairment of cell survival were determined.
Desorb solution was prepared in a ratio of water-ethanol-acetic acid glacial (49:50:1; v:v) during 20 min with shaking. Wavelength used for spectrophotometric reading of NR optical density was 540 nm. Test Criteria were that the differences between VC mean; R2>0.85; Point >0%<100%. The results are presented on FIG. 4.

As to `OC(Cn1cncn1)(Cn1cncn1)c1ccc(F)cc1F` [fluconazole], in data set [1] (Example 1, 24 h and 48 h of treatment), the “Stability of the growth inhibition effect, 24 h versus 48 h” value was “maximal effect at 24 h and reduced effects at 48 h”. Besides, the “Candida growth score (arbitrary unit, 0 no growth to 4 maximal growth)” value in data set [1] (after 48 h incubation, 2 separate runs) is 2 to 3 arbitrary unit. In data set [1] (all 5 concentrations applied (4, 16, 32, 65, 650 μg/ml)), the “Inhibition of Candida growth” value is on record as “inhibited Candida growth to a similar degree”. In data set [2] (Example 1, fluconazole at 1 mg/ml, 6 hour incubation), the “Adhesion of Candida, average value (100% = control)” value is 100%.

In the case of Pepstatin A, the “% inhibition (adhesion of Candida albicans to human epithelial cells)” value in data set [2] (Table 3, at 1 μM) was 5 (at 1 μM) %.

Turning to `CCCCCCCCCCCCOS(=O)(=O)[O-].[Na+]` [SDS], in data set [3], the “IC50 neutral red cytotoxicity” value fell in the range of 8 to 25 mg/L.
